Inconclusive results and toxic doses are left out.
Test system: P388 leukemia ip, CD2F1 mice, survival T/C
Experiment: NCI In Vivo Anticancer Drug Screen. Data for tumor model P388 Leukemia (intraperitoneal) in CD2F1 (CDF1) mice
Conditions: endpoint: median survival time, higher = longer survival
How it was run: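 Mice carrying the transplanted tumor received test compound or vehicle. Survival was recorded in each group, and the value is the treated-group measurement divided by that of the vehicle-treated control group.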

[1] = dose: 50.0 mg/kg/injection, schedule: Q01DX009 (ip), vehicle: saline
[2] = dose: 100.0 mg/kg/injection, schedule: Q01DX009 (ip), vehicle: saline
[3] = dose: 200.0 mg/kg/injection, schedule: Q01DX009 (ip), vehicle: saline
[4] = dose: 50.0 mg/kg/injection, schedule: Q01DX005 (ip), vehicle: Klucel (hydroxypropylcellulose) (HPC)
[5] = dose: 100.0 mg/kg/injection, schedule: Q01DX005 (ip), vehicle: Klucel (hydroxypropylcellulose) (HPC)

NC=NCC(=O)O
T/C [1]: 96 % of control | T/C [2]: 100 % of control | T/C [3]: 99 % of control

C=C1C(=O)O[C@@H]2[C@H](O)[C@@H](C)[C@@H]3C=CC(=O)[C@@]3(C)[C@@H](OC(=O)/C(C)=C/C)[C@H]12
T/C (dose: 1.5 mg/kg/injection, schedule: Q01DX009 (ip), vehicle: saline + alcohol): 107 % of control | T/C (dose: 6.0 mg/kg/injection, schedule: Q01DX009 (ip), vehicle: saline + alcohol): 118 % of control | T/C (dose: 6.75 mg/kg/injection, schedule: Q01DX009 (ip), vehicle: saline + alcohol): 158 % of control | T/C (dose: 8.75 mg/kg/injection, schedule: Q01DX009 (ip), vehicle: saline + alcohol): 120 % of control | T/C (dose: 12.0 mg/kg/injection, schedule: Q01DX009 (ip), vehicle: saline + alcohol): 116 % of control | T/C (dose: 12.5 mg/kg/injection, schedule: Q01DX009 (ip), vehicle: saline + alcohol): 164 % of control

O=C1CCCC1(c1ccccc1)c1ccccc1
T/C (dose: 100.0 mg/kg/injection, schedule: Q01DX009 (ip), vehicle: saline with Tween-80): 90 % of control | T/C (dose: 200.0 mg/kg/injection, schedule: Q01DX009 (ip), vehicle: saline with Tween-80): 95 % of control | T/C (dose: 400.0 mg/kg/injection, schedule: Q01DX009 (ip), vehicle: saline with Tween-80): 95 % of control

Nn1nnc2cc3c(cc21)nnn3N
T/C (dose: 100.0 mg/kg/injection, schedule: Q04DX002 (ip), vehicle: saline with Tween-80): 109 % of control | T/C (dose: 200.0 mg/kg/injection, schedule: Q04DX002 (ip), vehicle: saline with Tween-80): 98 % of control | T/C (dose: 400.0 mg/kg/injection, schedule: Q04DX002 (ip), vehicle: saline with Tween-80): 95 % of control

CCCCCCCCCCCCc1ccc(C[N+](C)(C)CC[N+](C)(C)Cc2ccc(CCCCCCCCCCCC)cc2)cc1
T/C [1]: 104 % of control

COC(=O)CCSC(=O)NCCCCCCNC(=O)SCCC(=O)OC
T/C [4]: 98 % of control | T/C [5]: 100 % of control | T/C (dose: 200.0 mg/kg/injection, schedule: Q01DX005 (ip), vehicle: Klucel (hydroxypropylcellulose) (HPC)): 98 % of control

CC1(C)CCCC12CCN1CCC([N+](=O)[O-])C12 (stereo not drawn)
T/C (dose: 11.5 mg/kg/injection, schedule: Q04DX003 (ip), vehicle: saline with Tween-80): 100 % of control | T/C (dose: 23.0 mg/kg/injection, schedule: Q04DX003 (ip), vehicle: saline with Tween-80): 108 % of control | T/C (dose: 46.0 mg/kg/injection, schedule: Q04DX003 (ip), vehicle: saline with Tween-80): 100 % of control | T/C (dose: 92.0 mg/kg/injection, schedule: Q04DX003 (ip), vehicle: saline with Tween-80): 108 % of control

COC1CC(O)OC1C(NC(C)=O)SC12CC3CC(CC(C3)C1)C2 (stereo not drawn)
T/C (dose: 100.0 mg/kg/injection, schedule: Q04DX003 (ip), vehicle: Klucel (hydroxypropylcellulose) (HPC)): 104 % of control | T/C (dose: 200.0 mg/kg/injection, schedule: Q04DX003 (ip), vehicle: Klucel (hydroxypropylcellulose) (HPC)): 106 % of control | T/C (dose: 400.0 mg/kg/injection, schedule: Q04DX003 (ip), vehicle: Klucel (hydroxypropylcellulose) (HPC)): 104 % of control

O=C(O)CC[S-].[Ag+]
T/C (dose: 100.0 mg/kg/injection, schedule: Q04DX003 (ip), vehicle: saline): 100 % of control | T/C (dose: 200.0 mg/kg/injection, schedule: Q04DX003 (ip), vehicle: saline): 100 % of control | T/C (dose: 400.0 mg/kg/injection, schedule: Q04DX003 (ip), vehicle: saline): 95 % of control

CCC1(CC)C(=O)NC(=O)[N]([Sn]([CH3])([CH3])[N]2C(=O)NC(=O)C(CC)(CC)C2=O)C1=O
T/C [4]: 112 % of control | T/C [5]: 111 % of control

CC1(C)OC1CCl (stereo not drawn)
T/C [1]: 107 % of control | T/C [2]: 102 % of control | T/C [3]: 101 % of control

CCCCCNC(=O)c1csc(-c2csc(CCNC(C)=O)n2)n1
T/C (dose: 12.5 mg/kg/injection, schedule: Q01DX009 (ip), vehicle: distilled water + Tween-80): 100 % of control | T/C (dose: 25.0 mg/kg/injection, schedule: Q01DX009 (ip), vehicle: distilled water + Tween-80): 103 % of control | T/C (dose: 50.0 mg/kg/injection, schedule: Q01DX009 (ip), vehicle: distilled water + Tween-80): 92 % of control | T/C (dose: 100.0 mg/kg/injection, schedule: Q01DX009 (ip), vehicle: distilled water + Tween-80): 91 % of control

O=S(=O)(OCCF)c1cc(Cl)c(Cl)cc1Cl
T/C (dose: 12.5 mg/kg/injection, schedule: Q01DX005 (ip), vehicle: Klucel (hydroxypropylcellulose) (HPC)): 98 % of control | T/C (dose: 25.0 mg/kg/injection, schedule: Q01DX005 (ip), vehicle: Klucel (hydroxypropylcellulose) (HPC)): 98 % of control | T/C [4]: 89 % of control

CCC1(O)C(=O)OCc2c1cc1n(c2=O)Cc2cc3cc4c(cc3nc2-1)OCO4 (stereo not drawn)
T/C (dose: 1.0 mg/kg/injection, schedule: Q01DX005 (ip), vehicle: saline with Tween-80): 177 % of control | T/C (dose: 2.0 mg/kg/injection, schedule: Q01DX005 (ip), vehicle: saline with Tween-80): 86 % of control

Reference: PubChem BioAssay AID330 (DTP/NCI, 2004)
